Assay results from ChEMBL document CHEMBL1944624, “Synthesis and antimalarial and antituberculosis activities of a series of natural and unnatural 4-methoxy-6-styryl-pyran-2-ones, dihydro analogues and photo-dimers” (Bioorg Med Chem, 2012).
pIC50: −log10 of the molar value. ≈ marks a conversion by molar mass, not a printed value.

System: Leishmania donovani
Assay: Antiprotozoal activity against Leishmania donovani
Format: functional, organism-based
Conditions: not given

SMILES | pIC50
CCCCCCCC1CC(O)=C(CCCCCC)C(=O)O1 (stereo unspecified) [PSEUDOPYRONINE B] | 5.32

System: Trypanosoma brucei rhodesiense
Assay: Antiprotozoal activity against Trypanosoma brucei rhodesiense
Format: functional, organism-based
Conditions: not given

SMILES | pIC50
CCCCCCc1c(OC)cc(CCCCC)oc1=O | 4.85
CCCCCCCC1CC(O)=C(CCCCCC)C(=O)O1 (stereo unspecified) [PSEUDOPYRONINE B] | 4.38

System: Plasmodium falciparum
Assay: microbe, parasite or virus in culture
Format: functional, organism-based
Conditions: K1
Description: Antiprotozoal activity against erythrocytic stages chloroquine- and pyrimethamine-resistant Plasmodium falciparum K1 assessed as inhibition of [3H]hypoxanthine incorporation pre-incubated for 48 hrs prior [3H]hypoxanthine addition measured after 24 hrs by liquid scintillation counting

SMILES | pIC50
COc1cc(CCc2ccc3c(c2)OCO3)oc(=O)c1 | < 4.74
COc1cc(/C=C/c2ccc(OC)c(OC)c2)oc(=O)c1 | 5.52
COc1cc(/C=C/c2cccc([N+](=O)[O-])c2)oc(=O)c1 | 4.92
COc1cc(/C=C/c2ccc([N+](=O)[O-])cc2)oc(=O)c1 | 5.22
COc1cc(/C=C/c2ccc(C(C)(C)C)cc2)oc(=O)c1 | 5.28
COc1cc(/C=C/c2ccc3c(c2)OCO3)oc(=O)c1 | 5.25
COc1cc(/C=C/c2cccc(Oc3ccccc3)c2)oc(=O)c1 | 5.31
COc1cc(/C=C/c2cccc(Oc3ccc(C(C)(C)C)cc3)c2)oc(=O)c1 | 5.20
COc1cc(/C=C/C=C/c2ccccc2)oc(=O)c1 | 5.17
COc1cc(/C=C/C=C/c2ccc(N(C)C)cc2)oc(=O)c1 | 5.14
COc1cc(/C=C/c2ccco2)oc(=O)c1 | 4.77
COc1cc(/C=C/c2cccc3ccccc23)oc(=O)c1 | 5.34
COc1cc(/C=C/c2ccc3ccccc3c2)oc(=O)c1 | 5.89
COc1cc(/C=C/c2ccc(/C=C/c3cc(OC)cc(=O)o3)cc2)oc(=O)c1 | 5.07
COc1cc(CCc2ccc(C(C)(C)C)cc2)oc(=O)c1 | 4.96

System: Leishmania donovani
Assay: Antiprotozoal activity against Leishmania donovani MHOM/ET/67/L82 axenic amastigotes after 72 hrs by alamar blue assay
Format: functional, organism-based
Conditions: MHOM/ET/67/L82, 72 h

SMILES | pIC50
COc1cc(CCc2ccc3c(c2)OCO3)oc(=O)c1 | < 3.48
COc1cc(/C=C/c2ccc(OC)c(OC)c2)oc(=O)c1 | 3.57
COc1cc(/C=C/c2cccc([N+](=O)[O-])c2)oc(=O)c1 | 3.57
COc1cc(/C=C/c2ccc([N+](=O)[O-])cc2)oc(=O)c1 | 4.31
COc1cc(/C=C/c2ccc(C(C)(C)C)cc2)oc(=O)c1 | 4.70
COc1cc(/C=C/c2ccc3c(c2)OCO3)oc(=O)c1 | 3.64
COc1cc(/C=C/c2cccc(Oc3ccccc3)c2)oc(=O)c1 | 4.52
COc1cc(/C=C/c2cccc(Oc3ccc(C(C)(C)C)cc3)c2)oc(=O)c1 | 4.60
COc1cc(/C=C/C=C/c2ccccc2)oc(=O)c1 | 3.66
COc1cc(/C=C/C=C/c2ccc(N(C)C)cc2)oc(=O)c1 | < 3.52
COc1cc(/C=C/c2ccco2)oc(=O)c1 | 3.62
COc1cc(/C=C/c2cccc3ccccc23)oc(=O)c1 | 4.33
COc1cc(/C=C/c2ccc3ccccc3c2)oc(=O)c1 | < 3.49
COc1cc(/C=C/c2ccc(/C=C/c3cc(OC)cc(=O)o3)cc2)oc(=O)c1 | < 3.62
COc1cc(CCc2ccc(C(C)(C)C)cc2)oc(=O)c1 | 4.62

System: Trypanosoma cruzi
Assay: Antiprotozoal activity against Trypanosoma cruzi Tulahuen C2C4 amastigotes infected in rat L6 myoblasts after 96 hrs by CPRG/Nonidet-based spectrophotometry
Format: functional, organism-based
Conditions: Tulahuen C2C4, L6, 96 h

SMILES | pIC50
COc1cc(CCc2ccc3c(c2)OCO3)oc(=O)c1 | < 3.48
COc1cc(/C=C/c2ccc(OC)c(OC)c2)oc(=O)c1 | 3.77
COc1cc(/C=C/c2cccc([N+](=O)[O-])c2)oc(=O)c1 | < 3.48
COc1cc(/C=C/c2ccc([N+](=O)[O-])cc2)oc(=O)c1 | 3.62
COc1cc(/C=C/c2ccc(C(C)(C)C)cc2)oc(=O)c1 | 4.59
COc1cc(/C=C/c2ccc3c(c2)OCO3)oc(=O)c1 | 3.74
COc1cc(/C=C/c2cccc(Oc3ccccc3)c2)oc(=O)c1 | 4.37
COc1cc(/C=C/c2cccc(Oc3ccc(C(C)(C)C)cc3)c2)oc(=O)c1 | 4.40
COc1cc(/C=C/C=C/c2ccccc2)oc(=O)c1 | < 3.46
COc1cc(/C=C/C=C/c2ccc(N(C)C)cc2)oc(=O)c1 | < 3.52
COc1cc(/C=C/c2ccco2)oc(=O)c1 | < 3.39
COc1cc(/C=C/c2cccc3ccccc23)oc(=O)c1 | 4.47
COc1cc(/C=C/c2ccc3ccccc3c2)oc(=O)c1 | < 3.49
COc1cc(/C=C/c2ccc(/C=C/c3cc(OC)cc(=O)o3)cc2)oc(=O)c1 | < 3.62
COc1cc(CCc2ccc(C(C)(C)C)cc2)oc(=O)c1 | 4.26

System: L6
Assay: Cytotoxicity against rat L6 myoblasts after 72 hrs by alamar blue assay
Format: cell-based
Conditions: L6, 72 h

SMILES | pIC50
COc1cc(CCc2ccc3c(c2)OCO3)oc(=O)c1 | 3.82
COc1cc(/C=C/c2ccc(OC)c(OC)c2)oc(=O)c1 | 3.80
COc1cc(/C=C/c2cccc([N+](=O)[O-])c2)oc(=O)c1 | 3.74
COc1cc(/C=C/c2ccc([N+](=O)[O-])cc2)oc(=O)c1 | 3.72
COc1cc(/C=C/c2ccc(C(C)(C)C)cc2)oc(=O)c1 | 4.62
COc1cc(/C=C/c2ccc3c(c2)OCO3)oc(=O)c1 | 4.80
COc1cc(/C=C/c2cccc(Oc3ccccc3)c2)oc(=O)c1 | 4.89
COc1cc(/C=C/c2cccc(Oc3ccc(C(C)(C)C)cc3)c2)oc(=O)c1 | 4.19
COc1cc(/C=C/C=C/c2ccccc2)oc(=O)c1 | 3.72
COc1cc(/C=C/C=C/c2ccc(N(C)C)cc2)oc(=O)c1 | 4.59
COc1cc(/C=C/c2ccco2)oc(=O)c1 | 3.85
COc1cc(/C=C/c2cccc3ccccc23)oc(=O)c1 | 3.96
COc1cc(/C=C/c2ccc3ccccc3c2)oc(=O)c1 | 4.55
COc1cc(/C=C/c2ccc(/C=C/c3cc(OC)cc(=O)o3)cc2)oc(=O)c1 | < 3.62
COc1cc(CCc2ccc(C(C)(C)C)cc2)oc(=O)c1 | 4.02

System: not listed separately
Assay: Selectivity index, ratio of IC50 for erythrocytic stages chloroquine and pyrimethamine-resistant Plasmodium falciparum K1 to IC50 for rat L6 myoblasts
Set-up: reference not given here
Conditions: not given

SMILES | Ratio IC50
COc1cc(/C=C/c2ccc(OC)c(OC)c2)oc(=O)c1 | 54
COc1cc(/C=C/c2cccc([N+](=O)[O-])c2)oc(=O)c1 | 15
COc1cc(/C=C/c2ccc([N+](=O)[O-])cc2)oc(=O)c1 | 32
COc1cc(/C=C/c2ccc(C(C)(C)C)cc2)oc(=O)c1 | 4
COc1cc(/C=C/c2ccc3c(c2)OCO3)oc(=O)c1 | 3
COc1cc(/C=C/c2cccc(Oc3ccccc3)c2)oc(=O)c1 | 3
COc1cc(/C=C/c2cccc(Oc3ccc(C(C)(C)C)cc3)c2)oc(=O)c1 | 10
COc1cc(/C=C/C=C/c2ccccc2)oc(=O)c1 | 29
COc1cc(/C=C/C=C/c2ccc(N(C)C)cc2)oc(=O)c1 | 4
COc1cc(/C=C/c2ccco2)oc(=O)c1 | 8
COc1cc(/C=C/c2cccc3ccccc23)oc(=O)c1 | 24
COc1cc(/C=C/c2ccc3ccccc3c2)oc(=O)c1 | 22
COc1cc(/C=C/c2ccc(/C=C/c3cc(OC)cc(=O)o3)cc2)oc(=O)c1 | >28
COc1cc(CCc2ccc(C(C)(C)C)cc2)oc(=O)c1 | 9

System: Plasmodium falciparum
Assay: Antiprotozoal activity against Plasmodium falciparum
Format: functional, organism-based
Conditions: not given

SMILES | pIC50
CCCCCCc1c(OC)cc(CCCCC)oc1=O | 4.96

System: Trypanosoma brucei rhodesiense
Assay: Antiprotozoal activity against Trypanosoma brucei rhodesiense STIB900 trypomastigotes after 72 hrs by alamar blue assay
Format: functional, organism-based
Conditions: STIB900, 72 h

SMILES | pIC50
COc1cc(CCc2ccc3c(c2)OCO3)oc(=O)c1 | < 3.48
COc1cc(/C=C/c2ccc(OC)c(OC)c2)oc(=O)c1 | 4.51
COc1cc(/C=C/c2cccc([N+](=O)[O-])c2)oc(=O)c1 | 3.54
COc1cc(/C=C/c2ccc([N+](=O)[O-])cc2)oc(=O)c1 | 4.42
COc1cc(/C=C/c2ccc(C(C)(C)C)cc2)oc(=O)c1 | 4.36
COc1cc(/C=C/c2ccc3c(c2)OCO3)oc(=O)c1 | 4.33
COc1cc(/C=C/c2cccc(Oc3ccccc3)c2)oc(=O)c1 | 5.06
COc1cc(/C=C/c2cccc(Oc3ccc(C(C)(C)C)cc3)c2)oc(=O)c1 | 4.47
COc1cc(/C=C/C=C/c2ccccc2)oc(=O)c1 | 3.82
COc1cc(/C=C/C=C/c2ccc(N(C)C)cc2)oc(=O)c1 | 3.54
COc1cc(/C=C/c2ccco2)oc(=O)c1 | 4.12
COc1cc(/C=C/c2cccc3ccccc23)oc(=O)c1 | 4.74
COc1cc(/C=C/c2ccc3ccccc3c2)oc(=O)c1 | 5.57
COc1cc(/C=C/c2ccc(/C=C/c3cc(OC)cc(=O)o3)cc2)oc(=O)c1 | 3.92
COc1cc(CCc2ccc(C(C)(C)C)cc2)oc(=O)c1 | 4.11

System: Plasmodium falciparum
Assay: Antiprotozoal activity against chloroquine resistant Plasmodium falciparum K1
Format: functional, organism-based
Conditions: not given

SMILES | pIC50
CCCCCCCC1CC(O)=C(CCCCCC)C(=O)O1 (stereo unspecified) [PSEUDOPYRONINE B] | 4.32

System: Mycobacterium tuberculosis
Assay: Antituberculosis activity against Mycobacterium tuberculosis
Format: functional
Conditions: not given

SMILES | MIC [µM]
CCCCCCc1c(OC)cc(CCCCC)oc1=O | 45 (≈ 12.6 µg/mL)
CCCCCCCC1CC(O)=C(CCCCCC)C(=O)O1 (stereo unspecified) [PSEUDOPYRONINE B] | 2.7 (≈ 0.8 µg/mL)
